# Test results as given in US20240376100A1 (Redona Therapeutics, Inc., priority 2021, published 2024).
# Counter-ions that a name gives are not always drawn.
# Target: PAPD5 enzyme (Homo sapiens, UniProt Q8NDF8)
# Experiment: PAPD5 assay (AMP incorporation onto 3'-terminus of RNA substrate, fluorescence quench)
# Format: biochemical
# Details: PAPD5 protein 0.3 nM, ATP 50 μM, 30 minutes preincubation, room temperature; read-out: Potency PAPD5 IC50
# Experimental: The purpose of the PAPD5 assay is to determine compound potency against PAPD5 enzyme through the measurement of IC50. Compound inhibition is measured as a function of AMP incorporation onto the 3′-terminus of an RNA substrate in the presence of active PAPD5, ATP, and inhibitor. The PAPD5 assay was done in a black, non-binding, 384 well plate (Corning #3575). All steps were performed at room temperature. For a typical assay, a 40 ul aliquot of assay buffer (50 mM HEPES pH 7.3, 20 mM KCl, 10 mM MgCl2, 10 mMM DTT, 0.01% Triton X-100, 40 U/ml RNAsin (Promega)) containing PAPD5 protein (final 10 concentration: 0.3 nM) and ATP (final concentration 50 μM) was added to each well. Next, 1 ul of compound in 100% DMSO is transferred from a compound dilution plate in which the compound is serially diluted. The plate was placed on a plate shaker for 30 seconds to produce mixing, then incubated for 30 minutes. Next, 10 ul of a 5× mix of RNA substrate (5′-fluorescein-AUAGAG-3′ (IDT)) and a DNA oligonucleotide that is complementary to the AMP modified RNA product (5′-TCTCTATT-3′-TAMRA, wherein the first two nucleotides are locked nucleic acids (IDT)) was added (final concentrations: 5 nM and 20 nM, respectively). The plate was placed on a plate shaker for 30 seconds to produce mixing then immediately placed in a Biotek Cytation 5 plate reader, and the time-dependent decrease in fluorescein fluorescence resulting from annealing of the TAMRA labeled quenching probe was recorded, using the kinetics mode of the reader (typical run time is 90 minutes). Reaction rates were obtained using linear fits to the early portion of progress curves. IC50 values were calculated using a four-parameter fit with 100% enzyme activity determined from the DMSO control and 0% activity from control samples lacking UTP.
# “+” represents an IC50 value that is greater than 50 PM; “++” represents an IC50 value that is greater than 10 μM and equal to or less than 50 μM; “+++” represents an IC50 value that is greater than 1 μM and equal to or less than 10 μM; and “++++” represents an IC50 value that is equal to or less than 1 μM.
# Sequence of PAPD5 enzyme (Q8NDF8 whole entry): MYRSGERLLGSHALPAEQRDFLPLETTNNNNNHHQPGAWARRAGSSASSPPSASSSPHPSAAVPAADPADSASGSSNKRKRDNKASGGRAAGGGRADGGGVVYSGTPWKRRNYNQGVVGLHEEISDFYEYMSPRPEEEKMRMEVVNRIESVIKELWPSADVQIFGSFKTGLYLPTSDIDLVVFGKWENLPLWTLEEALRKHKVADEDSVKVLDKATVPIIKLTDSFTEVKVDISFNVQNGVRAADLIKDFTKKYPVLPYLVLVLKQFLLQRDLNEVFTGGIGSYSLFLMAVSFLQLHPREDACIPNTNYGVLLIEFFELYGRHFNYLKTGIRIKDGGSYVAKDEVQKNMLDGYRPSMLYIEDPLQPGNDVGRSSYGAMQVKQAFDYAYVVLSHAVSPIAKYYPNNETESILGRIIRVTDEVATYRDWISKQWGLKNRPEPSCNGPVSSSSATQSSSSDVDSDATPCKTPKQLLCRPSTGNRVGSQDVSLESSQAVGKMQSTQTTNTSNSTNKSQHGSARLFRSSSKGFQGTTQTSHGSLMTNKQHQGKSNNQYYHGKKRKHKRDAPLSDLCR
row,SMILES,IC50
1,"CC1(Cn2cc(C(=O)O)c(=O)c3cc(Cl)c(N4Cc5cccnc5C4)nc32)CCC1 [Example 61, 6-chloro-7-(5,7-dihydro-6H-pyrrolo[3,4-b]pyridin-6-yl)-1-((1-methylcyclobutyl)methyl)-4-oxo-1,4-dihydro-1,8-naphthyridine-3-carboxylic acid]",≤ 1000 nM
2,"N#Cc1cc2c(=O)c(C(=O)O)cn(CC3CCCCC3)c2nc1N1Cc2cccnc2C1 [Example 63, 6-cyano-1-(cyclohexylmethyl)-7-(5,7-dihydro-6H-pyrrolo[3,4-b]pyridin-6-yl)-4-oxo-1,4-dihydro-1,8-naphthyridine-3-carboxylic acid]",≤ 1000 nM
3,"O=C(O)c1cn(Cc2ccncc2)c2nc(N3Cc4cccnc4C3)c(Cl)cc2c1=O [Example 66, 6-chloro-7-(5,7-dihydro-6H-pyrrolo[3,4-b]pyridin-6-yl)-4-oxo-1-(pyridin-4-ylmethyl)-1,4-dihydro-1,8-naphthyridine-3-carboxylic acid]",≤ 1000 nM
4,"O=C(O)c1cn(Cc2cccnc2)c2nc(N3Cc4cccnc4C3)c(Cl)cc2c1=O [Example 67, 6-chloro-7-(5,7-dihydro-6H-pyrrolo[3,4-b]pyridin-6-yl)-4-oxo-1-(pyridin-3-ylmethyl)-1,4-dihydro-1,8-naphthyridine-3-carboxylic acid]",≤ 1000 nM
5,"O=C(O)c1cn(Cc2ccccc2F)c2nc(N3Cc4cccnc4C3)c(Cl)cc2c1=O [Example 68, 6-chloro-7-(5,7-dihydro-6H-pyrrolo[3,4-b]pyridin-6-yl)-1-(2-fluorobenzyl)-4-oxo-1,4-dihydro-1,8-naphthyridine-3-carboxylic acid]",≤ 1000 nM
6,"O=C(O)c1cn(Cc2ccccc2Cl)c2nc(N3Cc4cccnc4C3)c(Cl)cc2c1=O [Example 69, 6-chloro-1-(2-chlorobenzyl)-7-(5,7-dihydro-6H-pyrrolo[3,4-b]pyridin-6-yl)-4-oxo-1,4-dihydro-1,8-naphthyridine-3-carboxylic acid]",≤ 1000 nM
7,"Cc1ccccc1Cn1cc(C(=O)O)c(=O)c2cc(Cl)c(N3Cc4cccnc4C3)nc21 [Example 70, 6-chloro-7-(5,7-dihydro-6H-pyrrolo[3,4-b]pyridin-6-yl)-1-(2-methylbenzyl)-4-oxo-1,4-dihydro-1,8-naphthyridine-3-carboxylic acid]",≤ 1000 nM
8,"COc1ncccc1Cn1cc(C(=O)O)c(=O)c2cc(Cl)c(N3Cc4cccnc4C3)nc21 [Example 71, 6-chloro-7-(5,7-dihydro-6H-pyrrolo[3,4-b]pyridin-6-yl)-1-((2-methoxypyridin-3-yl)methyl)-4-oxo-1,4-dihydro-1,8-naphthyridine-3-carboxylic acid]",≤ 1000 nM
9,"CC(C)(C)OC(=O)N1CCC(Cn2cc(C(=O)O)c(=O)c3cc(Cl)c(N4Cc5cccnc5C4)nc32)CC1 [Example 72, 1-((1-(tert-butoxycarbonyl)piperidin-4-yl)methyl)-6-chloro-7-(5,7-dihydro-6H-pyrrolo[3,4-b]pyridin-6-yl)-4-oxo-1,4-dihydro-1,8-naphthyridine-3-carboxylic acid]",≤ 1000 nM
10,"CC(C)(C)OC(=O)N1CCC(n2cc(C(=O)O)c(=O)c3cc(Cl)c(N4Cc5cccnc5C4)nc32)CC1 [Example 73, 1-(1-(tert-butoxycarbonyl)piperidin-4-yl)-6-chloro-7-(5,7-dihydro-6H-pyrrolo[3,4-b]pyridin-6-yl)-4-oxo-1,4-dihydro-1,8-naphthyridine-3-carboxylic acid]",≤ 1000 nM
11,"COc1cnc(-n2cc(C(=O)O)c(=O)c3cc(Cl)c(N4Cc5cccnc5C4)nc32)cn1 [Example 74, 6-chloro-7-(5,7-dihydro-6H-pyrrolo[3,4-b]pyridin-6-yl)-1-(5-methoxypyrazin-2-yl)-4-oxo-1,4-dihydro-1,8-naphthyridine-3-carboxylic acid]",≤ 1000 nM
12,"COc1cnc(-n2cc(C(=O)O)c(=O)c3cc(F)c(N4Cc5cccnc5C4)cc32)cn1 [Example 75, 7-(5,7-dihydro-6H-pyrrolo[3,4-b]pyridin-6-yl)-6-fluoro-1-(5-methoxypyrazin-2-yl)-4-oxo-1,4-dihydroquinoline-3-carboxylic acid]",≤ 1000 nM
13,"COc1cnc(-n2cc(C(=O)O)c(=O)c3cc(Cl)c(N4Cc5cccnc5C4)cc32)cn1 [Example 76, 6-chloro-7-(5,7-dihydro-6H-pyrrolo[3,4-b]pyridin-6-yl)-1-(5-methoxypyrazin-2-yl)-4-oxo-1,4-dihydroquinoline-3-carboxylic acid]",≤ 1000 nM
14,"Cc1cc(N)ncc1-n1cc(C(=O)O)c(=O)c2cc(F)c(N3Cc4cccnc4C3)nc21 [Example 77, 1-(6-amino-4-methylpyridin-3-yl)-7-(5,7-dihydro-6H-pyrrolo[3,4-b]pyridin-6-yl)-6-fluoro-4-oxo-1,4-dihydro-1,8-naphthyridine-3-carboxylic acid TFA salt]",≤ 1000 nM
15,"Cc1cc(N)ncc1-n1cc(C(=O)O)c(=O)c2cc(Cl)c(N3Cc4cccnc4C3)nc21 [Example 78, 1-(6-amino-4-methylpyridin-3-yl)-6-chloro-7-(5,7-dihydro-6H-pyrrolo[3,4-b]pyridin-6-yl)-4-oxo-1,4-dihydro-1,8-naphthyridine-3-carboxylic acid TFA salt]",≤ 1000 nM
16,"Cc1cc(N)ncc1-n1cc(C(=O)O)c(=O)c2cc(F)c(N3Cc4cccnc4C3)cc21 [Example 79, 1-(6-amino-4-methylpyridin-3-yl)-7-(5,7-dihydro-6H-pyrrolo[3,4-b]pyridin-6-yl)-6-fluoro-4-oxo-1,4-dihydroquinoline-3-carboxylic acid TFA salt]",≤ 1000 nM
17,"CC(=O)Nc1cc(C)c(-n2cc(C(=O)O)c(=O)c3cc(Cl)c(N4Cc5cccnc5C4)cc32)cn1 [Example 81, 1-(6-acetamido-4-methylpyridin-3-yl)-6-chloro-7-(5,7-dihydro-6H-pyrrolo[3,4-b]pyridin-6-yl)-4-oxo-1,4-dihydroquinoline-3-carboxylic acid]",≤ 1000 nM

# Now from value to compound:
row,IC50,SMILES
1,≤ 1000 nM,"Cc1cc(O)ncc1-n1cc(C(=O)O)c(=O)c2cc(C#N)c(N3Cc4cccnc4C3)cc21 [Example 60, 6-cyano-7-(5,7-dihydro-6H-pyrrolo[3,4-b]pyridin-6-yl)-1-(6-hydroxy-4-methylpyridin-3-yl)-4-oxo-1,4-dihydroquinoline-3-carboxylic acid]"
2,≤ 1000 nM,"N#Cc1cc2c(=O)c(C(=O)O)cn(CC3CCCC3)c2nc1N1Cc2cccnc2C1 [Example 62, 6-cyano-1-(cyclopentylmethyl)-7-(5,7-dihydro-6H-pyrrolo[3,4-b]pyridin-6-yl)-4-oxo-1,4-dihydro-1,8-naphthyridine-3-carboxylic acid]"
3,≤ 1000 nM,"Cc1ccnc2c1CN(c1nc3c(cc1Cl)c(=O)c(C(=O)O)cn3-c1cnccn1)C2 [Example 64, 6-chloro-7-(4-methyl-5,7-dihydro-6H-pyrrolo[3,4-b]pyridin-6-yl)-4-oxo-1-(pyrazin-2-yl)-1,4-dihydro-1,8-naphthyridine-3-carboxylic acid]"
4,≤ 1000 nM,"O=C(O)c1cn(Cc2ccccn2)c2nc(N3Cc4cccnc4C3)c(Cl)cc2c1=O [Example 65, 6-chloro-7-(5,7-dihydro-6H-pyrrolo[3,4-b]pyridin-6-yl)-4-oxo-1-(pyridin-2-ylmethyl)-1,4-dihydro-1,8-naphthyridine-3-carboxylic acid]"
5,≤ 1000 nM,"Cc1cc(N)ncc1-n1cc(C(=O)O)c(=O)c2cc(C#N)c(N3Cc4cccnc4C3)cc21 [Example 80, 1-(6-amino-4-methylpyridin-3-yl)-6-cyano-7-(5,7-dihydro-6H-pyrrolo[3,4-b]pyridin-6-yl)-4-oxo-1,4-dihydroquinoline-3-carboxylic acid]"
6,≤ 1000 nM,"CCC(=O)Nc1cc(C)c(-n2cc(C(=O)O)c(=O)c3cc(Cl)c(N4Cc5cccnc5C4)cc32)cn1 [Example 82, 6-chloro-7-(5,7-dihydro-6H-pyrrolo[3,4-b]pyridin-6-yl)-1-(4-methyl-6-propionamidopyridin-3-yl)-4-oxo-1,4-dihydroquinoline-3-carboxylic acid]"
7,≤ 1000 nM,"Cc1cc(NC(=O)C(C)C)ncc1-n1cc(C(=O)O)c(=O)c2cc(Cl)c(N3Cc4cccnc4C3)cc21 [Example 83, 6-chloro-7-(5,7-dihydro-6H-pyrrolo[3,4-b]pyridin-6-yl)-1-(6-isobutyramido-4-methylpyridin-3-yl)-4-oxo-1,4-dihydroquinoline-3-carboxylic acid]"
8,≤ 1000 nM,"O=C(O)c1cn(C2CCN(C(=O)c3ccccc3)CC2)c2cc(N3Cc4cccnc4C3)c(Cl)cc2c1=O [Example 84, 1-(1-benzoylpiperidin-4-yl)-6-chloro-7-(5,7-dihydro-6H-pyrrolo[3,4-b]pyridin-6-yl)-4-oxo-1,4-dihydroquinoline-3-carboxylic acid]"
